Positions count from the first letter of the chain named. pIC50: −log10 of the molar value. Structures can show the parent of a compound that is named as a salt. Where two headings read alike, the source gives them in different places.
Columns and labels:
LNCap cells = test: Cell viability assay (CellTiterGlo); assay type: cell-based; conditions: Homo sapiens, 144 h; for pIC50: 6 days incubation, CellTiterGlo, read-out: LNCap (IC50)
22Rv1 cells = test: Cell viability assay (CellTiterGlo); conditions: Homo sapiens, 22Rv1, 144 h, read-out: 22RV1 (IC50, nM)
[1] = target: T1, AR (cytosol from LnCaP cells) (Homo sapiens, UniProt P10275, T878A); test: AR binding assay (3H-R1881 displacement)
T1 sequence (P10275 1-920 T878A): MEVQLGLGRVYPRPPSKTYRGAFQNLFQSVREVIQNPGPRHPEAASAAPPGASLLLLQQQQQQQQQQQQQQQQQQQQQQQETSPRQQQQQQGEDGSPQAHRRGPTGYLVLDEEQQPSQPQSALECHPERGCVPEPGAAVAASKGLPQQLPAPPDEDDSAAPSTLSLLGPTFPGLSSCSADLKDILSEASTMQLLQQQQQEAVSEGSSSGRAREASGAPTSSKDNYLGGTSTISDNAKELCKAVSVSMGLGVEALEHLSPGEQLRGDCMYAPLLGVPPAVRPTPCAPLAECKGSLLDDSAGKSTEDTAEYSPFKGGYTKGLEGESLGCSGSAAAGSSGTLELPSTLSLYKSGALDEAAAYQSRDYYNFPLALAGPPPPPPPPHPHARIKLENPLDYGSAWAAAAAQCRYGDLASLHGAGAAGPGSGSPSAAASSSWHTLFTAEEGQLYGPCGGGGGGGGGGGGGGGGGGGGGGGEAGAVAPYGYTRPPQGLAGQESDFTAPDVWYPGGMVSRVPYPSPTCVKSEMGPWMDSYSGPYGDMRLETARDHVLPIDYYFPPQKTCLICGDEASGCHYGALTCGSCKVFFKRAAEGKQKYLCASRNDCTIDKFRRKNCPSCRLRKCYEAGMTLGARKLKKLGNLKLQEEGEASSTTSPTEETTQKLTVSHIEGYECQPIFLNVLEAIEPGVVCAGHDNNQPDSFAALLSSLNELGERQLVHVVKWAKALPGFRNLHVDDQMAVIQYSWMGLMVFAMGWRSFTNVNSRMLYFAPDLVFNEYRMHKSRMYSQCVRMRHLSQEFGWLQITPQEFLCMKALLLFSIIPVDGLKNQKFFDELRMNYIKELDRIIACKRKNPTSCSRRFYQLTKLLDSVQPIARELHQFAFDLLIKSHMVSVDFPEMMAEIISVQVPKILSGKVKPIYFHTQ
Protocol: The plate was then centrifuged at 3000 rpm for 30 minutes at 4° C.

[2] = target: T2, full-length androgen receptor (HEK293 cells stably expressing) (Homo sapiens, UniProt P10275); test: AR antagonism assay (luciferase reporter)
T2 sequence (P10275 1-920): T1 sequence (P10275 1-920 T878A) with A878T
Protocol: AR antagonism assay: To evaluate AR antagonist activity, test compound was added to the assay plate (top dose 10 μM, 3 fold serial dilution, 10 point dose response). HEK293 cells stably expressing the full-length androgen receptor were seeded at a density of 20000 cells/well in the assay plate. The assay plate was then incubated at room temperature for 10 minutes and at 37° C. 5% CO2 for 20 minutes. Testosterone was added to the assay plate at 1 nM final concentration and the assay plate incubated at 37° C., 5% CO2 for 20 h. […] Steady-glo was added to the assay plate and mixed at room temperature for 20 minutes on an orbital shaker, before reading out on the En Vision plate reader.

[3] = target: T3, ligand binding domain of the glucocorticoid receptor (HEK293 cells stably expressing) (Homo sapiens, UniProt P04150); test: GR antagonism assay (luciferase reporter)
T3 sequence (P04150 524-758 limits assumed): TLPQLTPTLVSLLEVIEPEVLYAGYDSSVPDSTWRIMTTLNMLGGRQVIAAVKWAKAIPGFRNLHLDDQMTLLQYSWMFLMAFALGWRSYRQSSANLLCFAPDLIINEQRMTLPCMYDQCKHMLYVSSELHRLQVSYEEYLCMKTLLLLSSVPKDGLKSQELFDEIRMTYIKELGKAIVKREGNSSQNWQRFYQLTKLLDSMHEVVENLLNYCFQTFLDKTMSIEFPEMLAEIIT
Protocol: HEK293 cells stably expressing the ligand binding domain of the glucocorticoid receptor were seeded at a density of 40000 cells/well in the assay plate. The assay plate was then incubated at 37° C., 5% CO2 for 30 minutes. Dexamethasone was added to the assay plate at 1.5 nM final concentration and the assay plate incubated at 37° C., 5% CO2 for 20 h. After the incubation period, Dual-glo luciferase reagent was added to the assay plate and mixed at room temperature for 20 minutes on an orbital shaker, before reading out on the En Vision plate reader. 50 μL of Stop & Glo reagent was added to assay plate, mixed at room temperature for 20 minutes, and read on the Envision plate reader.

[4] = target: T4, GR (cytosol from IM-9 cells) (Homo sapiens, UniProt P04150); test: GR binding assay (3H-Dexamethasone displacement)
T4 sequence (P04150 1-777): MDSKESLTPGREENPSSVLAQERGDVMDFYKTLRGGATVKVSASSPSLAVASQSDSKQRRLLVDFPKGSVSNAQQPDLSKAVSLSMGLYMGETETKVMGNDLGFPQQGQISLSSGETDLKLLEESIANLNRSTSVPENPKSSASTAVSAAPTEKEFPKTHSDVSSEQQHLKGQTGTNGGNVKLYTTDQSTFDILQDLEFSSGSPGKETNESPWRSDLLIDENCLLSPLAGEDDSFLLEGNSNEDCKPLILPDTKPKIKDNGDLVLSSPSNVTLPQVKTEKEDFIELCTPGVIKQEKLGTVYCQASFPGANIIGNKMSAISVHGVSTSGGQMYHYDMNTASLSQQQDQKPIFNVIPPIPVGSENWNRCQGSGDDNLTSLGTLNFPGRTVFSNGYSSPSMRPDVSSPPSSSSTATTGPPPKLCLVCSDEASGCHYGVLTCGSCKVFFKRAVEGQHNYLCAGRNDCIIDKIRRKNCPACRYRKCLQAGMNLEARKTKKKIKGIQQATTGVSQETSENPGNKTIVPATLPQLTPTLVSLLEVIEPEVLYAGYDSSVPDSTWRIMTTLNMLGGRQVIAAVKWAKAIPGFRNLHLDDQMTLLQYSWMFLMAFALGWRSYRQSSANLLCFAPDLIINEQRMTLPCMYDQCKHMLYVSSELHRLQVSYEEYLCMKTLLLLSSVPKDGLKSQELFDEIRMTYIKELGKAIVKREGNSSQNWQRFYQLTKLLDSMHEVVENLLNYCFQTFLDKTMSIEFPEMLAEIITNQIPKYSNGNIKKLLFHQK

IEC6 cells = test: Cell viability assay (CellTiterGlo); conditions: Rattus norvegicus, IEC-6, 144 h, read-out: IEC-6 (IC50, nM)
Protocol: Cell viability assay: LNCap, 22Rv1, MCF7, MDAMB361, T47D, and IEC6 cells were seeded at a density of 500-2000 cells/well in 96 well plates, and a ‘T0’ (timepoint 0) was included along with the assay plate. The plates were then incubated at 37° C., 5% CO2 in a cell culture incubator overnight. On the next day, the ‘T0’ plate was assayed using CellTiterGlo (Promega, Inc) according to the manufacturer's instructions. The appropriate compounds were diluted in DMSO and added to the assay plate (final DMSO concentration of 0.1-0.2%) on the next day. The assay plates were incubated for 6 days at 37° C., 5% CO2. After the incubation period, the plates were assayed using CellTiterGlo (Promega, Inc) according to the manufacturer's instructions and luminescence was read on the En Vision plate reader. […] GraphPadPrism was used to analyze the data and determine GI50/IC50 values.

Compound	pIC50 (LNCap cells)	IC50 (22Rv1 cells)	pIC50 [1]	pIC50 [2]	pIC50 [3]	pIC50 [4]	IC50 (LNCap cells; read-out: LNCap (IC50, nM))	IC50 (IEC6 cells)
CC[C@@]1(OC(=O)N2CCN(CC3CCN(c4ccc(C(=O)N[C@H]5CC[C@H](Oc6ccc(C#N)c(Cl)c6C)CC5)nn4)CC3)CC2)C(=O)OCc2c1cc1n(c2=O)Cc2cc3cc(OC)ccc3nc2-1 [Compound 23, (S)-4-Ethyl-9-methoxy-3,14-dioxo-3,4,12,14-tetrahydro-1H-pyrano[3′,4′:6,7]indolizino[1,2-b]quinolin-4-yl 4-((1-(6-(((1r,4r)-4-(3-chloro-4-cyano-2-methylphenoxy)cyclohexyl)carbamoyl)pyridazin-3-yl)piperidin-4-yl)methyl)piperazine-1-carboxylate]	7.00 to 8.00	101 to 1000 nM	7.00 to 8.00	< 6.00	< 6.00	< 6.00	–	–
CC[C@@]1(O)C(=O)OCc2c1cc1n(c2=O)Cc2cc3c(CN4CCN(C(=O)C5CCN(c6ccc(C(=O)N[C@H]7CC[C@H](Oc8ccc(C#N)c(Cl)c8C)CC7)nn6)CC5)CC4)c(O)ccc3nc2-1 [Compound 25, N-((1r,4r)-4-(3-Chloro-4-cyano-2-methylphenoxy)cyclohexyl)-6-(4-(4-(((S)-4-ethyl-4,9-dihydroxy-3,14-dioxo-3,4,12,14-tetrahydro-1H-pyrano[3′,4′:6,7]indolizino[1,2-b]quinolin-10-yl)methyl)piperazine-1-carbonyl)piperidin-1-yl)pyridazine-3-carboxamide]	> 8.00	10 to 100 nM	> 8.00	< 6.00	< 6.00	< 6.00	–	–
CC[C@@]1(O)C(=O)OCc2c1cc1n(c2=O)Cc2cc3c(CN4CCN(CC5CCN(c6ccc(C(=O)N[C@H]7CC[C@H](Oc8ccc(C#N)c(Cl)c8C)CC7)nn6)CC5)CC4)c(O)ccc3nc2-1 [Compound 26, N-((1r,4r)-4-(3-Chloro-4-cyano-2-methylphenoxy)cyclohexyl)-6-(4-((4-(((S)-4-ethyl-4,9-dihydroxy-3,14-dioxo-3,4,12,14-tetrahydro-1H-pyrano[3′,4′:6,7]indolizino[1,2-b]quinolin-10-yl)methyl)piperazin-1-yl)methyl)piperidin-1-yl)pyridazine-3-carboxamide Formate]	> 8.00	10 to 100 nM	> 8.00	< 6.00	< 6.00	< 6.00	–	–
CC[C@@]1(O)C(=O)OCc2c1cc1n(c2=O)Cc2cc3c(CN4CCN(C(=O)C5CCN(c6ccc(C(=O)N[C@H]7CC[C@H](Oc8ccc(C#N)c(Cl)c8C)CC7)nn6)CC5)CC4)c(OC(=O)N4CCN(C)CC4)ccc3nc2-1 [Compound 27, (S)-10-((4-(1-(6-(((1r,4r)-4-(3-Chloro-4-cyano-2-methylphenoxy)cyclohexyl)carbamoyl)-pyridazin-3-yl)piperidine-4-carbonyl)piperazin-1-yl)methyl)-4-ethyl-4-hydroxy-3,14-dioxo-3,4,12,14-tetrahydro-1H-pyrano[3′,4′:6,7]indolizino[1,2-b]quinolin-9-yl 4-methylpiperazine-1-carboxylate Formate]	–	101 to 1000 nM	> 8.00	6.00 to 7.00	< 6.00	7.00 to 8.00	10 to 100 nM	–
CC[C@@]1(O)C(=O)OCc2c1cc1n(c2=O)Cc2cc3c(CN4CCN(C(=O)CCCCCC5CCN(c6ccc(C(=O)N[C@H]7CC[C@H](Oc8ccc(C#N)c(Cl)c8C)CC7)nn6)CC5)CC4)c(O)ccc3nc2-1 [Compound No. 50]	7.00 to 8.00	10 to 100 nM	7.00 to 8.00	< 6.00	–	–	–	101 to 1000 nM
CC[C@@]1(O)C(=O)OCc2c1cc1n(c2=O)Cc2cc3c(CN4CCN(CCCCCCC5CCN(c6ccc(C(=O)N[C@H]7CC[C@H](Oc8ccc(C#N)c(Cl)c8C)CC7)nn6)CC5)CC4)c(O)ccc3nc2-1 [Compound No. 52]	7.00 to 8.00	10 to 100 nM	7.00 to 8.00	7.00 to 8.00	–	–	–	101 to 1000 nM
CC[C@@]1(O)C(=O)OCc2c1cc1n(c2=O)Cc2cc3c(CN4CCN(CC5CCN(c6ccc(N7C(=S)N(c8ccc(C#N)c(Cl)c8)C(=O)C7(C)C)cc6)CC5)CC4)c(O)ccc3nc2-1 [Compound No. 53, (S)-2-chloro-4-(3-(4-(4-((4-((4-ethyl-4,9-dihydroxy-3,14-dioxo-3,4,12,14-tetrahydro-1H-pyrano[3′,4′:6,7]indolizino[1,2-b]quinolin-10-yl)methyl)piperazin-1-yl)methyl)piperidin-1-yl)phenyl)-4,4-dimethyl-5-oxo-2-thioxoimidazolidin-1-yl)benzonitrile]	7.00 to 8.00	10 to 100 nM	7.00 to 8.00	7.00 to 8.00	–	–	–	101 to 1000 nM

Source: US20260102501A1, “ANTI-CANCER NUCLEAR HORMONE RECEPTOR-TARGETING COMPOUNDS” (Nuvation Bio Inc., priority 2022, published 2026)
